We go through one compound from patent publication US7592359B2, “Substituted azabicyclo hexane derivatives as muscarinic receptor antagonists” (Ranbaxy Laboratories Limited, priority 2003, dated 2009).

Each structure is given as a SMILES string.

One test addresses T1, M2 muscarinic receptor (Rattus norvegicus, UniProt P10980).
T1 construct: Submandibular glands and heart were isolated and placed in ice cold homogenising buffer; from tissue; host or cells: rat heart membrane homogenate
T1 sequence (P10980 1-466): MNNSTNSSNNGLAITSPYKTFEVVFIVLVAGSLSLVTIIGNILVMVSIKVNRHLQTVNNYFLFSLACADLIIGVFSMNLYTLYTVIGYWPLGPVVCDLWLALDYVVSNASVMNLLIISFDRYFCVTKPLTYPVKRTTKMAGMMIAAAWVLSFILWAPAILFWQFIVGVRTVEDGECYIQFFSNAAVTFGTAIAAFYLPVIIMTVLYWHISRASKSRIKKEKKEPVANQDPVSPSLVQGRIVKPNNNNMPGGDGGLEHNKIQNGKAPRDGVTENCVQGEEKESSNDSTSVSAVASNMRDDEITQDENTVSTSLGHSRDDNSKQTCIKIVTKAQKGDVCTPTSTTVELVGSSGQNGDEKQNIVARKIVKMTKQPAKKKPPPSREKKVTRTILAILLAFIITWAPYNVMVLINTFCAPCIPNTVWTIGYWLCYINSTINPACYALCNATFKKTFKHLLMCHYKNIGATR
As to the kind of experiment: Radioligand binding assay, [3H]-N-methylscopolamine, rat heart membranes. As to conditions: [3H]-NMS binding, read-out: Receptor Binding Assay pKi M2 (converted). Here is the method:
(§1) Membrane preparation: Submandibular glands and heart were isolated and placed in ice cold homogenising buffer (HEPES 20 mM, 10 mM EDTA, pH 7.4) immediately after sacrifice. The tissues were homogenised in 10 volumes of homogenising buffer and the homogenate was filtered through two layers of wet gauze and filtrate was centrifuged at 500 g for 10 min. The supernatant was subsequently centrifuged at 40,000 g for 20 min. The pellet thus obtained was resuspended in same volume of assay buffer (HEPES 20 mM, EDTA 5 mM, pH 7.4) and were stored at −70° C. until the time of assay.
(§2) Ligand binding assay The compounds were dissolved and diluted in DMSO. The membrane homogenates (150-250 μg protein) were incubated in 250 μl of assay buffer (HEPES 20 mM, pH 7.4) at 24-25° C. for 3 hours. Non-specific binding was determined in the presence of 1 μM atropine. The incubation was terminated by vacuum filtration over GF/B fiber filters (Wallac). The filters were then washed with ice cold 50 mM Tris HCl buffer (pH 7.4). The filter mats were dried and bound radioactivity retained on filters was counted. The IC50 & Kd were estimated by using the non-linear curve fitting program using G Pad Prism software.

The next test addresses T2, M3 muscarinic receptor (Rattus norvegicus, UniProt P08483).
T2 construct: Submandibular glands and heart were isolated and placed in ice cold homogenising buffer; from tissue; host or cells: rat submandibular gland membrane homogenate
As to the kind of experiment: Radioligand binding assay, [3H]-N-methylscopolamine, rat submandibular gland membranes. To be noted: [3H]-NMS binding, read-out: Receptor Binding Assay pKi M3 (converted). Here is the method:
as §1, §2

T2 sequence (P08483 whole entry): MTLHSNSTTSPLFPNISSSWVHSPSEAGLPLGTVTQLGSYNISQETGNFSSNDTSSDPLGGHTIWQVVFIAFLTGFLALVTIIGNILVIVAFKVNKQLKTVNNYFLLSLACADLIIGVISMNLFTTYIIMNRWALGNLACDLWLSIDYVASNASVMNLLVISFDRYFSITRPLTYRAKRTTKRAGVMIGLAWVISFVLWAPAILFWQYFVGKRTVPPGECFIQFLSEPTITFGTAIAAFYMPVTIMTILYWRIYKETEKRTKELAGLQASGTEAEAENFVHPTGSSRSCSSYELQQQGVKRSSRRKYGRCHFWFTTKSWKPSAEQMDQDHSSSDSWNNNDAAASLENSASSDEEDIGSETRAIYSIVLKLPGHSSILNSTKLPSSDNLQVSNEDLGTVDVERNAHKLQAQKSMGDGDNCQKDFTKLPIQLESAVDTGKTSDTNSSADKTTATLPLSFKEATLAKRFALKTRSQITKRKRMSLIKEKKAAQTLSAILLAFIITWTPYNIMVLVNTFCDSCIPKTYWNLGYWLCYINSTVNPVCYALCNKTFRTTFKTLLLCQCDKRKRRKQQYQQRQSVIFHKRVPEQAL

Turning to `O=C(NC12CC1CN(Cc1ccccc1)C2)C(CO)c1ccccc1` (stereo not drawn) [Compound No. 4, (1α,5α)-N-[3-benzyl-3-azabicyclo[3.1.0]hex-1-yl]-2-hydroxymethyl-2-phenylacetamide], the Ki on M2 muscarinic receptor was 15.8 µM; at M3 muscarinic receptor, 7.94 µM.
